Laboratory results as given in US20170266213A1, “USE OF BETA-NICOTINAMIDE MONONUCLEOTIDE IN PREPARATION OF ANTI-AGING DRUGS OR HEALTH-CARE PRODUCTS” (BONTAC BIO-ENGINEERING (SHENZHEN) CO., LTD, priority 2015, published 2017).

Tested on: Kunming mice (aged about 52 weeks)
Assay: Mouse survival test
Format: in vivo
Method: 1.1 Experimental material: β-nicotinamide mononucleotide (NMN)
1.2 Experimental animal: Kunming mice (aged about 52 weeks)
1.3 Administration method:
Blank group: fed on full diet;
Treatment group: fed on full diet supplemented with NMN (containing adjuvants) fully dissolved in water, where a single dose of NMN is 20 mg/Kg body weight/day;
Control group: fed on full diet supplemented with adjuvants equivalent to those in the Treatment group;
Mouse survival test: […] aged 52 weeks were assigned to two groups (that is, a blank control group and a treatment group) at random, each group having 40 animals.
Experimental method: see Function Evaluation procedures and Specification of test methods for health food—(2003 Edition, the Ministry of Health).

With `NC(=O)c1ccc[n+]([C@@H]2O[C@H](COP(=O)([O-])O)[C@@H](O)[C@H]2O)c1` [NMN, β-nicotinamide mononucleotide] the “extension of the lifespan of mice” value (NMN 20 mg/Kg body weight/day, versus blank and control groups (Table 1)) was “about 29%”, the “Morbility over 100 weeks (%)” value (aged 52 weeks at start, NMN 20 mg/Kg body weight/day in full diet, 100 weeks) was 38% and the “Morbility over 120 weeks (%)” value (aged 52 weeks at start, NMN 20 mg/Kg body weight/day in full diet, 120 weeks) was 52%. The “Morbility over 140 weeks (%)” value (aged 52 weeks at start, NMN 20 mg/Kg body weight/day in full diet, 140 weeks) was 61%, the “Morbility over 160 weeks (%)” value (aged 52 weeks at start, NMN 20 mg/Kg body weight/day in full diet, 160 weeks) was 74% and the “Morbility over 180 weeks (%)” value (aged 52 weeks at start, NMN 20 mg/Kg body weight/day in full diet, 180 weeks) was 100%. For the same compound, the “effect on the lifespan of mice (in words)” value (composition containing NMN) was “obviously extend the lifespan of mice”.
